Test results as given in patent US12082933B2, “Methods of using brain temporal dynamics” (priority 2016, dated 2024).

What was measured:
[1] = Open-label 8-week escitalopram treatment trial, depressive symptoms by MADRS; assay type: in vivo, human; settings: escitalopram 10-20 mg daily, week 8
Text: 95 participants were included in this study. Data were collected as part of the CAN-BIND 1 project (Lam et al., 2016). Participants were outpatients aged 18-60 years of age, and met DSM-IV-TR (2000) criteria for major depressive episode (MDE) in MDD, confirmed by the Mini international Neuropsychiatric inventory (MINI) (Sheehan et al., 1998). Data were gathered across four study sites: University Health Network, Centre for Addiction and Mental Health in Toronto, Queen's University in Kingston, Ontario, Canada, and University of British Columbia in Vancouver, British Columbia, Canada. Study procedures were approved by research ethics institutional review boards at each site. All participants signed written informed consent prior to participation. At study enrollment, all participants were experiencing a MDE duration≥3 months with a Montgomery Asberg Depression Rating Scale (MAD RS) score≥24. All participants were free of psychotropic medications for at least 5 half-lives before baseline Visit 1. Participants were excluded if they had: 1) any Axis I diagnosis other than MDD, that was considered the primary diagnosis; 2) diagnosis of Bipolar Disorder Type I or II; 3) a significant Axis II diagnosis (borderline, antisocial); 4) high suicidal risk, 5) substance dependence/abuse in the past 6 months; 6) presence of significant neurological disorders, 7) head trauma, or 8) other unstable medical condition. Exclusionary criteria related to the medications included: having failed four or more adequate pharmacological interventions, having started psychological treatment within the past 3 months with the intent of continuing the treatment, previously having failed escitalopram treatment or showing intolerance to escitalopram, and being at risk for hypomanic switch (i.e. with a history of antidepressant induced hypomania). In addition, female participants who were pregnant or breastfeeding were excluded. […] The study period was eight weeks and participants were assessed with MADRS every 2 weeks starting from before administration of study medication (baseline). […]

[2] = Resting-state eyes closed EEG multi-scale entropy (MSE) during escitalopram treatment; assay type: in vivo, human
Experimental: Subjects were instructed to sit quietly in a testing room, while 8 minute of resting-state eyes closed EEG were recorded. Subjects were instructed to remain still, reduce eye blinks or movement to a minimum, and refrain from falling asleep.
Data were imported into MATLAB (The Math Works. Inc. Natick, MA, USA) for preprocessing. The open source EEGLAB toolbox version 12.0 (Delorme and Makeig, 2004) were used for data import. The EEG signals were epoched into segments of two seconds duration. Then a standardized custom-made and stream-lined open source software develop by our team, EEGERP toolbox (http:www.tmseeg.com/multisiteprojects), was used to preprocess the data in 6 steps as described elsewhere (Farzan et al., 2017). All data were brought down to sampling rate of 512 Hz for consistency across all sites, and average re-referenced in the final preprocessing step.
MSE was examined identical to a prior publication (Farzan et al., Brain 2016). […] First, for a given time series {xi,x2, . . . xN}, the multiple coarse-grained time series {y1^(τ), y2^(τ), . . . , yN^(τ)} at scale factor τ were calculated by averaging the data points within non-overlapping windows of increasing length τ. Each element of the coarse-grained time series yj^(τ), was calculated according to the equation:
[formula] […] Second, the degree of predictability was measured for each of the multiple coarse-grained time series {y1^(τ), y2^(τ), . . . , yN^(τ)} using SampleEn. SampleEn was calculated according to the equation: SampleEn(r,m,M)=−In(C(m+1)/C(m)) (2) where C(m) is the total number of pairs of in consecutive similar data points, C(m+1) is the total number of pairs of m+1 consecutive similar data points in the multiple coarse-grained time series. SampleEn quantifies the variability of time series by estimating the predictability of amplitude patterns across a time series. […] MSE was calculated for a 30 second continuous epoch.” […]

[3] = six months of treatment; specifically in younger adults; cited from earlier work

Structure (SMILES) | MADRS Post Week8 (mean +/− std) ([1]; All Groups (n = 95)) | MADRS Post Week8 (mean +/− std) ([1]; Non-responders (n = 50)) | MADRS Post Week8 (mean +/− std) ([1]; Responders (n = 45)) | Change in MSE pre (baseline) to post treatment (week 8) ([2]; non-responders) | Change in MSE at week 2 relative to pre treatment (baseline) ([2]; non-responders, scale factor>18, lateral frontal, fronto-temporal, parieto-occipital regions, clusters p<0.05) | Change in MSE pre (baseline) to post treatment (week 8) ([2]; responders, fronto-parietal brain regions, cluster p=0.09) | Effect on excess complexity (Lempel-Ziv Complexity) in depression [3]
CN(C)CCC[C@@]1(c2ccc(F)cc2)OCc2cc(C#N)ccc21 [Escitalopram] | 15.4 +/− 9.7 | 22.3 +/− 7.18 | 7.62 +/− 5.24 | No significant changes | reduction of MSE in coarse time-scales | reduction of MSE in fine time-scales | –
CN1CCN2c3ncccc3Cc3ccccc3C2C1 (stereo not shown) [mirtazapine] | – | – | – | – | – | – | normalized the excess complexity in depression
